# In patent publication US12472272B2, “Radiolabelled compounds for diagnosis or treatment of prostate-specific membrane antigen- expressing cancer” (PROVINCIAL HEALTH SERVICES AUTHORITY, priority 2019, dated 2025):
# Legend:
# LNCaP tumors = test: PET/CT imaging of ^68Ga-labeled tracers; type: in vivo, mice; conditions: FIG. 3
# Procedure: (§1) Imaging and biodistribution experiments were performed using NODSCID 1L2RγKO male mice. Mice were anesthetized by inhalation with 2% isoflurane in oxygen, and implanted subcutaneously with 1×10^7 LNCaP cells behind left shoulder. Mice were imaged or used in biodistribution studies when the tumor grew up to reach 5-8 mm in diameter during 5-6 weeks.
# (§2) PET imaging experiments were conducted using Siemens Inveon micro PET/CT scanner. Each tumor bearing mouse was injected 6-8 MBq of Ga-68 labeled tracer through the tail vein under anesthesia (2% isoflurane in oxygen). The mice were allowed to recover and roam freely in their cage. After 50 min, the mice were sedated again with 2% isoflurane in oxygen inhalation and positioned in the scanner. A 10-min CT scan was conducted first for localization and attenuation correction after segmentation for reconstructing the PET images. Then, a 10-min static PET imaging was performed to determined uptake in tumor and other organs. The mice were kept warm by a heating pad during acquisition. For imaging studies acquired at 3 h post-injection (p.i.), the mice were placed in the micro PET/CT scanner at 170 min p.i. Then, the CT acquisitions were conducted as described above, a 15-min static PET imaging was performed to determined uptake in tumor and other organs.
# [1] = test system: PSMA-expressing LNCAP cancer xenografts; test: Biodistribution of ^68Ga-labeled PSMA-targeting tracers; type: in vivo, mice; conditions: 1 h post-injection
# Procedure: as §1, §2
# For biodistribution studies, the mice were injected with the radiotracer as described above. At predetermined time points (1 or 3 h for ^68Ga studies; 1, 4, 24, 72, or 120 h for ^177Lu studies), the mice was anesthetized with 2% isoflurane inhalation, and euthanized by CO2 inhalation. Blood was withdrawn immediately from the heart, and the organs/tissues of interest were collected. The collected organs/tissues were weighed and counted using a Perkin Elmer (Waltham, MA) Wizard2 2480 gamma counter. The uptake in each organ/tissue was normalized to the injected dose using a standard curve, and expressed as the percentage of the injected dose per gram of tissue (% ID/g).
Tissue (% ID/g): Adrenal glands [1],Tissue (% ID/g): Blood [1],Tissue (% ID/g): Bone [1],Tissue (% ID/g): Brain [1],Tissue (% ID/g): Fat [1],Tissue (% ID/g): Heart [1],Tissue (% ID/g): Intestine [1],Tissue (% ID/g): Kidneys [1],Tissue (% ID/g): Lacrimal [1],Tissue (% ID/g): Liver [1],Tissue (% ID/g): Lungs [1],Tissue (% ID/g): Muscle [1],Tissue (% ID/g): Pancreas [1],Tissue (% ID/g): Salivary [1],Tissue (% ID/g): Seminal [1],Tissue (% ID/g): Spleen [1],Tissue (% ID/g): Stomach [1],Tissue (% ID/g): Tail [1],Tissue (% ID/g): Testes [1],Compound,uptake in PET/CT images (LNCaP tumors),also measured
1.84 ± 0.95 % ID/g,0.70 ± 0.19 % ID/g,0.54 ± 0.20 % ID/g,0.06 ± 0.02 % ID/g,0.45 ± 0.11 % ID/g,0.30 ± 0.06 % ID/g,0.29 ± 0.06 % ID/g,68.5 ± 28.2 % ID/g,1.33 ± 0.90 % ID/g,0.24 ± 0.06 % ID/g,0.82 ± 0.26 % ID/g,0.28 ± 0.13 % ID/g,0.71 ± 1.04 % ID/g,0.83 ± 0.22 % ID/g,0.43 ± 0.31 % ID/g,1.34 ± 0.54 % ID/g,0.10 ± 0.03 % ID/g,0.90 ± 0.56 % ID/g,0.35 ± 0.22 % ID/g,CCCCCC[C@H](NC(=O)[C@H]1CC[C@H](CNC(=O)CN2CCN(CC(=O)[O-])CCN(CC(=O)[O-])CCN(CC(=O)[O-])CC2)CC1)C(=O)NCCCC[C@H](NC(=O)N[C@@H](CCC(=O)O)C(=O)O)C(=O)O.[68Ga+3] [^68Ga-HTK03026],"higher uptake was observed in LNCap tumor xenografts, kidneys and urinary bladders",Tissue (% ID/g): Thyroid [1]: 0.35 ± 0.08 % ID/g; Tissue (% ID/g): Tumor [1]: 12.5 ± 2.90 % ID/g; Tissue (% ID/g): Urine [1]: 575 ± 245 % ID/g; tumor-to-background contrast ratio Tumor: Blood [1]: 18.6 ± 5.54; tumor-to-background contrast ratio Tumor: Muscle [1]: 52.8 ± 24.9; tumor-to-background contrast ratio Tumor: kidney [1]: 0.22 ± 0.15; Tissue (% ID/g): Tumor ([1]; listed as 68Ga-labeled HTK03026): ~13 % ID/g
3.55 ± 2.33 % ID/g,1.56 ± 0.57 % ID/g,0.70 ± 0.33 % ID/g,0.06 ± 0.03 % ID/g,1.03 ± 0.67 % ID/g,0.56 ± 0.24 % ID/g,0.44 ± 0.12 % ID/g,85.6 ± 73.5 % ID/g,1.00 ± 0.56 % ID/g,0.46 ± 0.10 % ID/g,1.66 ± 0.67 % ID/g,0.48 ± 0.37 % ID/g,0.57 ± 0.20 % ID/g,1.86 ± 0.91 % ID/g,10.6 ± 10.9 % ID/g,3.36 ± 2.54 % ID/g,0.17 ± 0.10 % ID/g,0.98 ± 0.38 % ID/g,0.56 ± 0.18 % ID/g,O=C([O-])CN1CCN(CC(=O)[O-])CCN(CC(=O)NC[C@H]2CC[C@H](C(=O)N[C@@H](Cc3ccc4cc5ccccc5cc4c3)C(=O)NCCCC[C@H](NC(=O)N[C@@H](CCC(=O)O)C(=O)O)C(=O)O)CC2)CCN(CC(=O)[O-])CC1.[68Ga+3] [^68Ga-HTK03027],"higher uptake was observed in LNCap tumor xenografts, kidneys and urinary bladders",Tissue (% ID/g): Thyroid [1]: 0.76 ± 0.33 % ID/g; Tissue (% ID/g): Tumor [1]: 13.3 ± 5.44 % ID/g; Tissue (% ID/g): Urine [1]: 844 ± 645 % ID/g; tumor-to-background contrast ratio Tumor: Blood [1]: 8.57 ± 2.83; tumor-to-background contrast ratio Tumor: Muscle [1]: 35.0 ± 18.7; tumor-to-background contrast ratio Tumor: kidney [1]: 0.27 ± 0.20; Tissue (% ID/g): Tumor ([1]; listed as 68Ga-labeled HTK03027): ~13 % ID/g
4.91 ± 1.57 % ID/g,3.93 ± 0.91 % ID/g,0.92 ± 0.14 % ID/g,0.09 ± 0.02 % ID/g,1.57 ± 0.42 % ID/g,1.25 ± 0.27 % ID/g,0.77 ± 0.11 % ID/g,198 ± 49.3 % ID/g,1.06 ± 0.49 % ID/g,1.32 ± 0.63 % ID/g,3.59 ± 0.69 % ID/g,0.63 ± 0.10 % ID/g,0.94 ± 0.18 % ID/g,3.27 ± 1.02 % ID/g,6.74 ± 10.7 % ID/g,7.08 ± 5.08 % ID/g,0.31 ± 0.08 % ID/g,2.18 ± 0.65 % ID/g,1.02 ± 0.13 % ID/g,O=C([O-])CN1CCN(CC(=O)[O-])CCN(CC(=O)NC[C@H]2CC[C@H](C(=O)N[C@@H](Cc3ccc4ccc5cccc6ccc3c4c56)C(=O)NCCCC[C@H](NC(=O)N[C@@H](CCC(=O)O)C(=O)O)C(=O)O)CC2)CCN(CC(=O)[O-])CC1.[68Ga+3] [^68Ga-HTK03029],"higher uptake was observed in LNCap tumor xenografts, kidneys and urinary bladders",Tissue (% ID/g): Thyroid [1]: 1.57 ± 0.32 % ID/g; Tissue (% ID/g): Tumor [1]: 13.9 ± 6.58 % ID/g; Tissue (% ID/g): Urine [1]: 175 ± 178 % ID/g; tumor-to-background contrast ratio Tumor: Blood [1]: 3.39 ± 1.01; tumor-to-background contrast ratio Tumor: Muscle [1]: 21.3 ± 7.50; tumor-to-background contrast ratio Tumor: kidney [1]: 0.07 ± 0.02; Tissue (% ID/g): Tumor ([1]; listed as 68Ga-labeled HTK03029): ~13 % ID/g
